Source: patent publication US20080160000A1 (priority 2006, published 2008)
Like-named read-outs stand apart in the source and are kept apart here.

What was measured:
Eimeria maxima = test: Example 2: chickens infected with Eimeria maxima, feed test (growth, OPG); assay type: in vivo
Description: Three groups (20 chickens/group) of tested chickens (type of chickens: chunky, neonatal chick, male) were prepared.
The test chickens of the eighth to tenth groups are bred for 28 days by freely feeding the feeds (Table 6) obtained by adding the ingredients to the basal feed (100 mass %) shown in Table 1. The test chickens of all the groups were infected with oocysts of coccidial protozoa Eimeria maxima in a ratio of 1.5×10^4 oocysts/chicken in an oral administration manner on the twenty-first day after the breeding. On each sixth to eighth day after the infection, the feces of the groups were sampled, and the number of oocysts per gram of the feces (OPG) was measured (as a three-day average value).

Eimeria acervulina = test: Example 1: chickens infected with Eimeria acervulina, feed test (growth, lesion, OPG, ACI); assay type: in vivo
Description: Seven groups (30 chickens/group) of test chickens (type of chickens: chunky, one week of age, male) were prepared.
The test chickens of the first to seventh groups are bred for 12 days by freely feeding the feeds (Table 4) obtained by adding the ingredients to the basal feed (100 mass %) shown in Table 1. The test chickens of the second to seventh groups excluding the first group were infected with oocysts of coccidial protozoa Eimeria acervulina in a ratio of 5.0×10^4 oocysts/chicken in an oral administration manner on the seventh day after the start of the breeding. Next, after the breeding was finished, the test chickens of the groups were dissected, and degrees of lesions in the duodenums were evaluated according to the following evaluation criteria. In addition, on the dissection day, feces of the groups were sampled, and the number of oocysts per gram of the feces (OPG) was measured. OPG scores were determined by OPG values according to the evaluation criteria as follow.

clostridium perfringens = assay type: in vivo, chickens; conditions: for Body weight, compared-group comparison / Body weight gain, compared-group comparison / Feed intake, compared-group comparison / Feed conversion ratio, compared-group comparison / Number of clostridium perfringens, compared-group comparison: index, Fifteenth Group = 100

CC[C@@H](C(=O)[C@@H](C)[C@@H](O)[C@H](C)[C@@H]1O[C@@H]([C@@H](CC)C(=O)O)CC[C@@H]1C)[C@H]1O[C@]2(C=C[C@@H](O)[C@]3(CC[C@@](C)([C@H]4CC[C@](O)(CC)[C@H](C)O4)O3)O2)[C@H](C)C[C@@H]1C [Third group, Salinomycine]
Body weight gain (Eimeria maxima; 28 days): 1018 g/chicken
Feed conversion ratio (Eimeria maxima; 28 days): 1.50
Feed intake (Eimeria maxima; 28 days): 1525 g/chicken
Final body weight (Eimeria maxima; 28 days breeding, infected day 21 with 1.5×10^4 oocysts/chicken): 1054 g/chicken
Maxima OPG (Eimeria maxima; average on the 6 to 8 days after infection): 3.1 10,000 oocysts/g of feces
Growth ratio (Eimeria maxima; in vivo): 100(100) %
Final body weight, compared-group comparison (Eimeria maxima; index, Eighth Group (basal feed) = 100): 117
Body weight gain, compared-group comparison (Eimeria maxima; index, Eighth Group = 100): 117
Feed conversion ratio, compared-group comparison (Eimeria maxima; index, Eighth Group = 100): 94
Feed intake, compared-group comparison (Eimeria maxima; index, Eighth Group = 100): 110
Growth ratio, compared-group comparison (Eimeria maxima; index, Eighth Group = 100): 100(100)
Maxima OPG, compared-group comparison (Eimeria maxima; index, Eighth Group = 100): 18
Average OPG score in feces D (Eimeria acervulina; 0 to 40 points from OPG values per Table 3, average of three tested bodies in each group): 33.3
ACI (anticoccidial indces) (Eimeria acervulina; ACI = (A + B) − (10C + D)): 126
Relative ratio weight gain/initial weight (compared with First group) A (Eimeria acervulina; First group (non-infected basal feed) = 100): 95.0%
Average final body weight (Eimeria acervulina; after 12 days breeding, infected on day 7 with 5.0×10^4 oocysts/chicken): 643 g
Feed conversion ratio (Eimeria acervulina; in vivo): 1.32
Feed intake (Eimeria acervulina; in vivo): 318 g/chicken
Survival ratio B (Eimeria acervulina; in vivo): 100.0%
Weight gain/initial weight ratio (Eimeria acervulina; in vivo): 60.1%
Body weight gain (Eimeria acervulina; initial to final weight): 242 g/chicken
Average lesion score C (Eimeria acervulina; lesion in duodenum, 0 to 4 points per Table 2): 3.6

enramycin [Sixteenth Group]
Body weight gain (clostridium perfringens; 1 week): 96 g/chicken
Feed intake (clostridium perfringens; 1 week): 118 g/chicken
Body weight (clostridium perfringens; 1 week of age, basal feed with 30% rye): 136 g/chicken
Body weight, compared-group comparison (clostridium perfringens; 1 week of age): 114
Body weight gain, compared-group comparison (clostridium perfringens; 1 week): 121
Feed intake, compared-group comparison (clostridium perfringens; 1 week): 107
Body weight gain (clostridium perfringens; 2 weeks): 220 g/chicken
Feed intake (clostridium perfringens; 2 weeks): 323 g/chicken
Body weight (clostridium perfringens; 2 weeks of age): 356 g/chicken
Body weight, compared-group comparison (clostridium perfringens; 2 weeks of age): 124
Body weight gain, compared-group comparison (clostridium perfringens; 2 weeks): 132
Feed intake, compared-group comparison (clostridium perfringens; 2 weeks): 140
Body weight gain (clostridium perfringens; 3 weeks): 345 g/chicken
Feed intake (clostridium perfringens; 3 weeks): 510 g/chicken
Body weight (clostridium perfringens; 3 weeks of age): 700 g/chicken
Body weight, compared-group comparison (clostridium perfringens; 3 weeks of age): 130
Body weight gain, compared-group comparison (clostridium perfringens; 3 weeks): 135
Feed intake, compared-group comparison (clostridium perfringens; 3 weeks): 124
Feed conversion ratio (clostridium perfringens; First week): 1.23
Number of clostridium perfringens (clostridium perfringens; First week, cloacal swab): 2.0 LogCFU/g
Feed conversion ratio, compared-group comparison (clostridium perfringens; First week): 89
Number of clostridium perfringens, compared-group comparison (clostridium perfringens; First week): 34
Feed conversion ratio (clostridium perfringens; Second week): 1.47
Number of clostridium perfringens (clostridium perfringens; Second week, cloacal swab): 2.0 LogCFU/g
Feed conversion ratio, compared-group comparison (clostridium perfringens; Second week): 106
Number of clostridium perfringens, compared-group comparison (clostridium perfringens; Second week): 47
Feed conversion ratio (clostridium perfringens; Third week): 1.48
Number of clostridium perfringens (clostridium perfringens; Third week, cloacal swab): 2.0 LogCFU/g
Feed conversion ratio, compared-group comparison (clostridium perfringens; Third week): 91
Number of clostridium perfringens, compared-group comparison (clostridium perfringens; Third week): 41
Feed conversion ratio (clostridium perfringens; Total): 1.44
Body weight gain (clostridium perfringens; Total (21 days)): 660 g/chicken
Feed intake (clostridium perfringens; Total (21 days)): 950 g/chicken
Number of clostridium perfringens (clostridium perfringens; Total (no unit printed in this row; weekly rows in LogCFU/g)): 2.0
Body weight gain, compared-group comparison (clostridium perfringens; Total): 132
Feed conversion ratio, compared-group comparison (clostridium perfringens; Total): 96
Feed intake, compared-group comparison (clostridium perfringens; Total): 126
Number of clostridium perfringens, compared-group comparison (clostridium perfringens; Total): 40
